Data: the NIST ThermoML archive (doi:10.1016/j.tca.2016.06.014)
Where “and” joins values, the source holds several entries; their conditions need not be identical. Identical values can stand only once.

Assays:
[1] = for vapor or sublimation pressure: Transpiration method; for Normal melting temperature: DTA; for Triple point temperature: DSC
[2] = Molar enthalpy of transition or fusion; conditions: DSC

BrC1C2CC3CC(C2)CC1C3 (stereo unspecified) [2-bromoadamantane]
[1], Crystal
Conditions | vapor or sublimation pressure [kPa]
298.5 K | 0.00329
300.9 K | 0.0039
303.4 K | 0.00475
308.4 K | 0.00703
313.3 K | 0.01089
318.2 K | 0.01506
323.2 K | 0.02279
328.2 K | 0.03107
333.2 K | 0.04422
338.2 K | 0.06437
340.1 K | 0.07403
343.1 K | 0.08635

Crystal
Conditions | Molar enthalpy of transition or fusion [kcal/mol] | Normal melting temperature [°C]
[1] | – | 141.6
[2] | 1 | –

BrC12CC3CC(CC(C3)C1)C2 [1-bromotricyclo[3.3.1.1(3,7)]decane]
vapor or sublimation pressure [kPa], [1]
Conditions | 298.2 K | 303.2 K | 313.2 K | 317.3 K | 320.2 K | 323.2 K | 325.7 K | 328.2 K | 333.1 K | 337.1 K
Crystal 1 | – | – | 0.0166 | 0.02262 | 0.02932 | 0.03504 | 0.04244 | 0.04954 | 0.06913 | 0.08922
Crystal 2 | 0.00419 | 0.00677 | – | – | – | – | – | – | – | –

Conditions | Molar enthalpy of transition or fusion, [2] [kcal/mol] | Triple point temperature, [1] [K]
Crystal 1 | 1.15 | 390.9
Crystal 2 | 1.77 | 311.6

BrC1CCCCC1 [bromocyclohexane]
[1], Liquid
Conditions | vapor or sublimation pressure [kPa]
277.5 K | 0.105
280 K | 0.1251
281.7 K | 0.1422
283.6 K | 0.1639
285.5 K | 0.1872
287.4 K | 0.21
288.8 K | 0.2298
289.3 K | 0.2446
291.3 K | 0.2704
293.2 K | 0.3182
295.3 K | 0.3668
297.3 K | 0.4161

ClC12CC3CC(CC(C3)C1)C2 [1-chlorotricyclo[3.3.1.1(3,7)]decane]
[1], Crystal
Conditions | vapor or sublimation pressure
298.5 K | 0.01172 kPa
301 K | 0.01402 kPa
303.2 K | 0.01766 kPa
303.4 K | 0.01712 kPa
306.3 K | 0.02255 kPa
308.3 K | 0.02567 kPa
308.4 K | 0.02653 kPa
311.4 K | 0.03389 kPa
313.3 K | 0.0365 kPa
316.2 K | 0.04719 kPa
318.2 K | 0.05137 kPa and 0.05598 kPa
323.2 K | 0.07923 kPa
323.3 K | 0.0762 kPa
326.2 K | 0.09623 kPa
328.2 K | 0.1033 kPa and 0.11 kPa
330.7 K | 0.1198 kPa
333.2 K | 0.1492 kPa
333.4 K | 0.1437 kPa

Crystal
Conditions | Molar enthalpy of transition or fusion [kcal/mol] | Normal melting temperature [°C]
[1] | – | 165.8
[2] | 1.24 | –

ClC1C2CC3CC(C2)CC1C3 (stereo unspecified) [2-chlorotricyclo[3.3.1.1(3,7)]decane]
[1], Crystal
Conditions | vapor or sublimation pressure
298.6 K | 0.00623 kPa
301.6 K | 0.0076 kPa
303.5 K | 0.00901 kPa
308.4 K | 0.01307 kPa
310.3 K | 0.01568 kPa
313.3 K | 0.0191 kPa
313.5 K | 0.01927 kPa and 0.01999 kPa and 0.01925 kPa
315.3 K | 0.0223 kPa
318.2 K | 0.02668 kPa
323.5 K | 0.03885 kPa
328.2 K | 0.05574 kPa
333.2 K | 0.07877 kPa
335.7 K | 0.08972 kPa
338.2 K | 0.106 kPa

Crystal
Conditions | Molar enthalpy of transition or fusion [kcal/mol] | Normal melting temperature [°C]
[1] | – | 195.0
[2] | 1.51 | –
